{"source": "patent US6576620B2", "about": "“Method of identifying partial adenosine A1 receptor agonists” (CV Therapeutics, Inc., priority 1999, dated 2003)", "system": "guinea pig isolated heart", "experiment": "Monophasic action potential duration, isolated heart", "protocol": "Signals were considered adequate if they were stable for at least 5-10 min and the amplitudes exceeded 10 mV. The data were digitized at 2 kHz by a DT-2801A digitizing board (Data Translation, Marlboro, Mass.) and were saved for analysis using the Snapshot data acquisition program (Snapshot Storage Scope, HEM Data Corp., Southfield, Mich.). The duration of the atrial and ventricular monophasic action potentials was measured from onset of depolarization to either 50 or 90% of repolarization."}
{"smiles": "CNC(=O)OC[C@H]1OC(n2cnc3c(N[C@@H]4CCOC4)ncnc32)[C@H](O)[C@@H]1O", "note": "(stereo partly drawn) [Compound 6 of Example 2, [(5-{6-[((3R)oxolan-3-yl)amino]purin-9-yl}(3 S,2R,4R)-3,4-dihydroxyoxolan-2-yl)methoxy]-N-methylcarboxamide]", "values": [{"measurement": "effect on duration of ventricular or atrial monophasic action potential", "value": "no significant effect"}, {"measurement": "duration of atrial monophasic action potential at 50% of repolarization", "setting": "20 μM compound, control 41±3", "value": "41 ± 3", "unit": "ms"}, {"measurement": "duration of atrial monophasic action potential at 90% of repolarization", "setting": "20 μM compound, control 66±4", "value": "74 ± 4", "unit": "ms"}, {"measurement": "duration of ventricular monophasic action potential at 90% of repolarization", "setting": "20 μM compound, control 158±4", "value": "160 ± 7", "unit": "ms"}]}
